Results taken from ChEMBL document CHEMBL5537197, “Discovery of Novel Coumarin-quinolinium Derivatives as Pan-KRAS Translation Inhibitors by Targeting 5'-UTR RNA G-Quadruplexes” (J Med Chem, 2024).
The source made the active and inactive calls. No cut-off for these calls is given here.

Columns and labels:
MIA PaCa-2 [1] = assay: Cytotoxicity against human MIA PaCa-2 cells harboring KRAS G12C mutant assessed as cell growth inhibition incubated for 24 hrs by MTT assay; assay type: functional, cell-based; conditions: MIA PaCa-2, 24 h
PANC-1 = assay: Cytotoxicity against human PANC-1 cells harboring KRAS G12D mutant assessed as cell growth inhibition incubated for 24 hrs by MTT assay; assay type: functional, cell-based; conditions: PANC-1, 24 h
[2] = Cytotoxicity against human PANC-1 cells […] assessed as cell growth inhibition incubated for 24 hrs by MTT assay; assay type: functional, cell-based; conditions: PANC-1, 24 h
NCM460 = assay: Cytotoxicity against human NCM460 cells harboring wild-type KRAS assessed as cell growth inhibition incubated for 24 hrs by MTT assay; assay type: functional, cell-based; conditions: NCM460, 24 h
[3] = target: GTPase KRas (Homo sapiens) (UniProt P01116); assay: Inhibition of KRAS in human MIA PaCa-2 cells at >5 uM incubated for 24 hrs by Western blot analysis; assay type: cell-based
[4] = target: GTPase KRas (Homo sapiens) (UniProt P01116); assay: Inhibition of KRAS in human PANC-1 cells at >5 uM incubated for 24 hrs by Western blot analysis; assay type: cell-based
HPAF-II = assay: Cytotoxicity against human HPAF-II cells harboring KRAS G12D mutant assessed as cell growth inhibition incubated for 24 hrs by MTT assay; assay type: functional, cell-based
SW-620 = assay: Cytotoxicity against human SW620 cells harboring KRAS G12V mutant assessed as cell growth inhibition incubated for 24 hrs by MTT assay; assay type: functional, cell-based; conditions: SW-620, 24 h
HCT-116 = assay: Cytotoxicity against human HCT-116 cells harboring KRAS G13D mutant assessed as cell growth inhibition incubated for 24 hrs by MTT assay; assay type: functional, cell-based; conditions: HCT-116, 24 h
NCI-H358 = assay: Cytotoxicity against human NCI-H358 cells harboring KRAS G12C mutant assessed as cell growth inhibition incubated for 24 hrs by MTT assay; assay type: functional, cell-based; conditions: NCI-H358, 24 h
U-87 MG = assay: Cytotoxicity against human U-87 MG cells harboring wild-type KRAS assessed as cell growth inhibition incubated for 24 hrs by MTT assay; assay type: functional, cell-based, U-87MG ATCC
[5] = Cytotoxicity against human LX2 cells harboring wild-type KRAS assessed as cell growth inhibition incubated for 24 hrs by MTT assay; assay type: toxicity, cell-based, LX-2
[6] = Cytotoxicity against human HFL1 cells harboring wild-type KRAS assessed as cell growth inhibition incubated for 24 hrs by MTT assay; assay type: toxicity, cell-based
[7] = target: GTPase KRas (Homo sapiens) (UniProt P01116); assay: Inhibition of KRAS in human MIA PaCa-2 cells at 2.5 uM incubated for 24 hrs by Western blot analysis; assay type: cell-based
[8] = target: GTPase KRas (Homo sapiens) (UniProt P01116); assay: Inhibition of KRAS in human PANC-1 cells at 2.5 uM incubated for 24 hrs by Western blot analysis; assay type: cell-based
MIA PaCa-2 [9] = assay: In vivo inhibition of KRAS in human MIA PaCa-2 cells xenografted in BALB/C-nu/nu mouse model at 2.5 mg/kg,ip everyday for 18 days by IHC analysis; assay type: functional, organism-based; conditions: time 18.0 day

GTPase KRas (Homo sapiens), sequence (P01116 whole entry, looked up): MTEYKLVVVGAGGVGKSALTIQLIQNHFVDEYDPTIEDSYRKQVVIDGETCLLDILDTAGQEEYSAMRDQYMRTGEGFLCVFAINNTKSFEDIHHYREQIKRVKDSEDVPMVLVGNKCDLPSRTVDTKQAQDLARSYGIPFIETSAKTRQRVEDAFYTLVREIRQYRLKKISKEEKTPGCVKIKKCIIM

| SMILES | IC50 (MIA PaCa-2 [1]) [µM] | IC50 (PANC-1) [µM] | IC50 [2] [µM] | IC50 (NCM460) [µM] | inhibition [3] | inhibition [4] | IC50 (HPAF-II) [µM] | IC50 (SW-620) [µM] | IC50 (HCT-116) [µM] | IC50 (NCI-H358) [µM] | IC50 (U-87 MG) [µM] | IC50 at 24 h [5] [µM] | IC50 at 24 h [6] [µM] | inhibition [7] | inhibition [8] | Activity (MIA PaCa-2 [9]) |
| --- | --- | --- | --- | --- | --- | --- | --- | --- | --- | --- | --- | --- | --- | --- | --- | --- |
| CCN(CC)c1ccc2cc(/C=C/c3ccc4cc(F)c(N5CCN(C)CC5)cc4[n+]3C)c(=O)oc2c1 | 10.8 | 14.7 | > 40 | > 40 | Active | Active | 32.1 | 18.6 | 19.1 | 11.9 | > 40 | > 40 | > 40 | – | – | – |
| CCN(CC)CCCNc1cc2c(ccc(/C=C/c3cc4ccc(N(CC)CC)cc4oc3=O)[n+]2C)cc1F | 7.7 | 7.2 | > 40 | > 40 | – | – | – | – | – | – | – | – | – | Active | Active | – |
| CCN(CC)c1ccc2cc(/C=C/c3ccc4cc(F)c(NCCCN(C)C)cc4[n+]3C)c(=O)oc2c1 | 8.6 | 9 | > 40 | > 40 | – | – | – | – | – | – | – | – | – | Active | Active | – |
| CCN(CC)c1ccc2cc(/C=C/c3ccc4cc(F)c(NCCCN5CCCC5)cc4[n+]3C)c(=O)oc2c1 | 7.8 | 11.8 | > 40 | > 40 | – | – | – | – | – | – | – | – | – | Active | Active | – |
| CCN(CC)c1ccc2cc(/C=C/c3ccc4cc(F)c(NCCCN5CCOCC5)cc4[n+]3C)c(=O)oc2c1 | 4.2 | 6 | > 40 | > 40 | – | – | – | – | – | – | – | – | – | Active | Active | – |
| C=CC(=O)N1CCN(c2nc(=O)n(-c3c(C)ccnc3C(C)C)c3nc(-c4c(O)cccc4F)c(F)cc23)[C@@H](C)C1 [SOTORASIB] | > 40 | > 40 | > 40 | > 40 | – | – | – | – | – | – | – | – | – | – | – | inactive |
| CCN(CC)c1ccc2cc(/C=C/c3cc(N4CCCN(C)CC4)c4cc(F)c(N5CCCN(C)CC5)cc4[n+]3C)c(=O)oc2c1 | 10 | 11.5 | > 40 | > 40 | – | – | – | – | – | – | – | – | – | Active | Active | – |
